Laboratory results from patent US8686115B2, “Compositions and methods for quantitatively monitoring lipids” (The Board of Trustees of the University of Illinois, priority 2009, dated 2014).

How the values were obtained:
PLCδ PH domain = assay: SPR: inhibition by IP3 of PLCδ PH domain binding to PtdIns(4,5)P2-containing vesicles; conditions: 5 μM IP3; 250 nM PLCδ PH domain; POPC/POPS/PtdIns(4,5)P2 (77:20:3) LUVs; 5 min incubation; pH 7.4
Experimental: (§1) With respect to FIG. 1, an L1 sensor chip was coated with POPC/POPS/PtdIns(4,5)P2 (77:20:3) LUVs. The proteins were incubated with a given concentration of IP3 for 5 minutes before injecting into the SPR instrument. Kinetic SPR measurements were performed in 20 mM Tris-HCL, pH 7.4, containing 0.16 KCl. […] A lower concentration of DAN-eENTH was used than that of PLCδ PH because the former has much higher affinity that the latter.

[1] = target: T1, DAN-eENTH: epsin 1 ENTH domain variant M10C/C96A/S4W, SEQ ID NO: 2, labeled with DAN at C10 (Homo sapiens, UniProt Q9Y6I3, C96A/M10C/S4W); assay: SPR: effect of IP3 on DAN-eENTH binding to PtdIns(4,5)P2-containing vesicles; conditions: 5 μM IP3; 50 nM DAN-eENTH; POPC/POPS/PtdIns(4,5)P2 (77:20:3) LUVs; 5 min incubation; pH 7.4
T1 construct: The Epsin1 ENTH domain (1-158 amino acids) was subcloned; GST (C, cleaved yes); made in house; host or cells: E. coli BL21 RIL codon plus
T1 sequence (Q9Y6I3 1-158 S4W/M10C/C96A): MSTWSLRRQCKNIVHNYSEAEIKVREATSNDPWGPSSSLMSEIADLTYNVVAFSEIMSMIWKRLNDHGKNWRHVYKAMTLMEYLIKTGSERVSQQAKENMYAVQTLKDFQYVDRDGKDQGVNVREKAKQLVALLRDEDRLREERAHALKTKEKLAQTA
Experimental: as §1

[2] = system: PtdIns(4,5)P2 in the plasma membrane; assay: Effect of ionomycin on plasma membrane PtdIns(4,5)P2 in cells microinjected with DAN-eENTH; format: cell-based; conditions: majority of DAN-eENTH released to the cytosol
Experimental: [DAN-eENTH] was adjusted to give strong enough FB and FG signals for robust data analysis. […] Also, when [PtdIns(4,5)P2] in the plasma membrane was lowered by ionomycin treatment, a majority of DAN-eENTH was released to the cytosol.
NIH 3T3 cells were seeded into 8-well plates and grown at 37° C. in a humidified atmosphere of 95% air and 5% CO2 in Dulbecco's modified Eagle's medium (DMEM) (Invitrogen) supplemented with 10% (v/v) fatal bovine serum (Invitrogen). DAN-eENTH was delivered into the cells by microinjection using the Eppendorf InjectMan NI 2 system. All microscopy measurements and data analysis were performed as described above. For cell measurements, the minimal FB value was taken from the cytosol where PtdIns(4,5)P2 is absent and (FB)max was taken after the excess amount of exogenous PtdIns(4,5)P2 was delivered to the cell by either microinjection or as vesicle formulation. […] Thus, the cellular [PtdIns(4,5)P2] was determined from the observed (FB/FG) values using the in vitro calibration curve determined using POPC/POPS/PtdIns(4,5)P2 GUVs.

SMILES: O=P(O)(O)O[C@@H]1[C@H](O)[C@H](O)[C@@H](OP(=O)(O)O)[C@H](OP(=O)(O)O)[C@H]1O [IP3, inositol-(1,4,5)-triphosphate]
- inhibition of binding to PtdIns(4,5)P2-containing vesicles (PLCδ PH domain): > 70%
- effect on binding to PtdIns(4,5)P2-containing vesicles [1]: minimal effect

SMILES: C[C@H](CCC(=O)O)C[C@H](C)C[C@H](C)C(=O)/C=C(\O)[C@H](C)C[C@H](C)C/C=C/[C@@H](C)[C@@H](O)[C@@H](C)[C@@H](O)C[C@@H]1CC[C@@](C)([C@H]2CC[C@@](C)([C@@H](C)O)O2)O1 [ionomycin]
- [PtdIns(4,5)P2] in the plasma membrane upon ionomycin treatment [2]: lowered
